In this assay the test system is S. aureus. Nature of the assay: Sytox Green fluorescence measurement of S. aureus incubated with inhibitors. The class given is cell-based. The following applies: for Fluorescence value (Sytox Green, 533 nm): 24 hours, control 294.0 ± 0.1. As to the method: To achieve this, S. aureus was again incubated with our peptidomimetic inhibitors, specifically, 18, 22, 23 and 24 at 8, 32 and 128 μg mL^−1 and harvested after 24 hours to ensure the bacteria reach their growth plateau. Peptide 24 was included to confirm the influence of the N-terminal benzyl group. The bacterial cells were permeabilized and their […] were labelled using Sytox Green and subsequently their fluorescence was measured quantitatively. […] Bacteria incubated with 32 and 128 μg mL^−1 of 18 as well as 128 μg mL^−1 of 22 were also imaged using fluorescence microscopy (Fig. 4). In the control sample, planktonic bacteria could be abundantly observed (Fig. 4a). While it was hard to distinguish the microscopy images for the less strong inhibition (Fig. 4b and c), it became evident from the sample with 128 μg mL^−1 of 18 that visually bacterial growth was affected as well (Fig. 4d) where the bacteria were much more sparsely distributed in the sample. […]
For the fluorescence experiments S. aureus was cultured overnight in sterile TSB medium and diluted 1:250 by adding 2.5 μL bacterial culture into TSB medium in sterilized 1.5 mL Eppendorf tubes to a final volume of 500 μL. Subsequently, peptides were added to the bacteria from filter sterilized stocks in MQ-H2O to give 8, 32 and 128 μg/ml final concentrations. Then, bacteria were incubated at 37 °C for 24 hours and centrifuged for 3 minutes at 3000 rpm in an Eppendorf Microstar 30r centrifuge. The supernatant was discarded and the cells were washed once with sterilized PBS and centrifuged. 100 μL PBS-T (PBS + 0.1% Triton-X) was added to the cells for 15 minutes to induce cell membrane permeabilization. After removal of the PBS-T by centrifugation, 100 μL of 5 μM Sytox Green (Invitrogen, Waltham, MA, USA) solution in PBS […]
was added and the cells were stained for 30 minutes, centrifuged and washed with PBS twice.
For the fluorescence measurements, the cells were resuspended with 100 μL of PBS and added in a sterilized, white plastic polystyrene 96-well plate and their fluorescence was measured by exciting the samples at 488nm and measuring the fluorescence intensity at 533 nm in a microplate reader. All individual samples were carried out in duplicate. For the fluorescence microscopy experiments, the cells were treated in the same, but resuspended in 10 μL of PBS and 5 μL of bacterial suspension was spotted on a glass target plate dipped in a melted solution of 1.2% agarose in Tris-HCl (50 mM) to ensure fixation of the sample. The sledes were covered by a cover glass and observed on an Axio Imager Z2m fluorescence microscope (Zeiss, Jena, Germany) at 100 times magnification at the emission wavelength of […]
Biofilm inhibition assays
For the biofilm inhibition experiments the S. aureus strain CCUG10778 was cultured overnight in sterile BHI broth. A sterilized, clear polystyrene 96-well plate was prepared by coating with plasma by addition of 20% of final assay volume rabbit plasma to the wells and incubating overnight at 4 °C. Then, the cultured strain was diluted 1:100 by adding 2 μL into BHI medium on the plasma coated plate to a total volume of 200 μL. Subsequently, peptides were added to the bacteria from filter sterilized stocks in MQ-H2O to give 8, 32 and 128 μg/ml final concentrations and incubated for 12 hours at 37 °C without shaking. The supernatant was removed and the wells were rinsed with PBS and 100 μL of 1% crystal violet solution (diluted in PBS) was added and the biofilms were stained for 10 minutes. The wells were washed with PBS twice and 200 μL of a 95% ethanol solution in water was added to solubilize the cells for 30 minutes. 100 μL was transferred into a new 96-well plate and the absorbance measured at 595 nm using a Varioskan Lux microplate reader. All individual samples were carried out in […]
All computational studies and analysis steps were performed employing the YASARA molecular modeling program.6, 7
Molecular graphics were created with YASARA (www.yasara.org) and POVRay […]

In the case of H-FLPRDA-NH2 [Compound 22, FLPRDA], the “Fluorescence value (Sytox Green, 533 nm)” value runs as follows: (8 μg/ml) 302.3 ± 0.5; (32 μg/ml) 297.4 ± 0.3; (128 μg/ml) 275.2 ± 1.1. Besides, the “decrease in fluorescence signal (in words)” value (128 μg mL^−1, 24 hours) is “minor effect”.

For the origin of these results see PMC10306101, “Substrate-derived Sortase A inhibitors: targeting an essential virulence factor of Gram-positive pathogenic bacteria” (Chemical Science, 2023).
